The numbers were not newly measured in US20080262061A1, “COMPOSITION AND USE OF A LIQUID FUNGICIDAL FORMULATION OF MYCLOBUTANIL OR TEBUCONAZOLE FUNGICIDE” (HELENA HOLDING COMPANY, priority 2007, published 2008), which cites them from elsewhere.

For this series the following is noted: background statement.

Regarding `CC(C)(C)C(O)(CCc1ccc(Cl)cc1)Cn1cncn1` (racemic) [tebuconazole, (RS)-1-p-chlorophenyl-4,4-dimethyl-3-(1H-1,2,4-triazol-1-ylmethyl)═pentan-3-ol], the water solubility result was “not significantly water soluble”.

As to `CCCCC(C#N)(Cn1cncn1)c1ccc(Cl)cc1` (centres unmarked) [Myclobutanil, 2-p-chlorophenyl-2-(1H-1,2,4-triazol-1-ylmethyl)hexanenitrile], the water solubility result is “not significantly water soluble”.
